{"source": "patent US20020111274A1", "about": "“1-alkyl-3-[1-(substituted phenyl) benzotriazol-6-yl] uracils” (BASF Aktiengesellschaft, priority 2000, published 2002)", "design_in_all_cases": "scale not given here", "conditions_in_all_cases": "postemergence spray, rated about two-three weeks after treatment", "key": {"ABUTH Velvetleaf": {"tested_on": "ABUTH Velvetleaf", "test": "Postemergence herbicidal evaluation, ABUTH", "format": "in vivo, Abutilon theophrasti, Medic.", "description": "(§1) In this evaluation, seedling plants are grown in jiffy flats for about two weeks. The test compounds are dispersed in 80/20 acetone/water mixtures containing 1.0% SUN-IT® II, a methylated seed oil, in sufficient quantities to provide the equivalent of about 0.006 kg to 0.400 kg per hectare of active compound when applied to the plants through a spray nozzle operating at 40 psi for a predetermined time. After spraying, the plants are placed on greenhouse benches and are cared for in accordance with conventional greenhouse procedures. Approximately two - three weeks after treatment, the seedling plants are examined and rated according to the rating system set forth below. Where more than one test is involved for a given compound, the data are averaged."}, "AMBEL Ragweed, Common": {"tested_on": "AMBEL Ragweed, Common", "test": "Postemergence herbicidal evaluation, AMBEL", "format": "in vivo, Ambrosia artemisifolia, L.", "description": "as §1"}, "CASOB Sicklepod": {"tested_on": "CASOB Sicklepod", "test": "Postemergence herbicidal evaluation, CASOB", "format": "in vivo, Cassia obtusifolia, L.", "description": "as §1"}, "[1]": {"tested_on": "CHEAL Lambsquarters, Common", "test": "Postemergence herbicidal evaluation, CHEAL", "format": "in vivo, Chenopodium album, L.", "description": "as §1"}, "ECHOG Barnyardgrass": {"tested_on": "ECHOG Barnyardgrass", "test": "Postemergence herbicidal evaluation, ECHOG", "format": "in vivo, Echinochloa crus-galli, (L.) Beau", "description": "as §1"}, "GALAP Galium": {"tested_on": "GALAP Galium", "test": "Postemergence herbicidal evaluation, GALAP", "format": "in vivo, Galium aparine", "description": "as §1"}, "[2]": {"tested_on": "IPOHE Morningglory, Ivyleaf", "test": "Postemergence herbicidal evaluation, IPOHE", "format": "in vivo, Ipomoea hederacea, (L.) Jacq.", "description": "as §1"}, "SETVI Foxtail, Green": {"tested_on": "SETVI Foxtail, Green", "test": "Postemergence herbicidal evaluation, SETVI", "format": "in vivo, Setaria viridis, (L.) Beau", "description": "as §1"}, "GLXMAW Soybean, Williams": {"tested_on": "GLXMAW Soybean, Williams", "test": "Postemergence herbicidal evaluation, GLXMAW", "format": "in vivo, Glycine max, (L.) Merr. cv Williams", "description": "as §1"}, "[3]": {"tested_on": "TRZAWR Wheat, Winter, cv Riband", "test": "Postemergence herbicidal evaluation, TRZAWR", "format": "in vivo, Triticum aestivum", "description": "as §1"}, "ORYSAT Rice, Tebonnet": {"tested_on": "ORYSAT Rice, Tebonnet", "test": "Postemergence herbicidal evaluation, ORYSAT", "format": "in vivo, Oryza sativa, (L.)", "description": "as §1"}, "ZEAMX Corn, Field": {"tested_on": "ZEAMX Corn, Field", "test": "Postemergence herbicidal evaluation, ZEAMX", "format": "in vivo, Zea mays, L. (Sammel-Bezeichnung)", "description": "as §1"}}}
{"smiles": "Cc1ccc(OCC(=O)O)cc1-n1nnc2cc(F)c(-n3c(=O)cc(C(F)(F)F)n(C)c3=O)cc21", "note": "[Example 37]", "values": [{"measurement": "Postemergence herbicidal rating ABUTH", "setting": "ABUTH Velvetleaf; 0.008 kg/ha", "value": 0.0}, {"measurement": "Postemergence herbicidal rating ABUTH", "setting": "ABUTH Velvetleaf; 0.016 kg/ha", "value": 3.0}, {"measurement": "Postemergence herbicidal rating ABUTH", "setting": "ABUTH Velvetleaf; 0.032 kg/ha", "value": 5.0}, {"measurement": "Postemergence herbicidal rating ABUTH", "setting": "ABUTH Velvetleaf; 0.062 kg/ha", "value": 9.0}, {"measurement": "Postemergence herbicidal rating AMBEL", "setting": "AMBEL Ragweed, Common; 0.008 kg/ha", "value": 0.0}, {"measurement": "Postemergence herbicidal rating AMBEL", "setting": "AMBEL Ragweed, Common; 0.016 kg/ha", "value": 4.0}, {"measurement": "Postemergence herbicidal rating AMBEL", "setting": "AMBEL Ragweed, Common; 0.032 kg/ha", "value": 9.0}, {"measurement": "Postemergence herbicidal rating AMBEL", "setting": "AMBEL Ragweed, Common; 0.062 kg/ha", "value": 9.0}, {"measurement": "Postemergence herbicidal rating CASOB", "setting": "CASOB Sicklepod; 0.008 kg/ha", "value": 0.0}, {"measurement": "Postemergence herbicidal rating CASOB", "setting": "CASOB Sicklepod; 0.016 kg/ha", "value": 0.0}, {"measurement": "Postemergence herbicidal rating CASOB", "setting": "CASOB Sicklepod; 0.032 kg/ha", "value": 0.0}, {"measurement": "Postemergence herbicidal rating CASOB", "setting": "CASOB Sicklepod; 0.062 kg/ha", "value": 0.0}, {"measurement": "Postemergence herbicidal rating CHEAL", "setting": "[1]; 0.008 kg/ha", "value": 0.0}, {"measurement": "Postemergence herbicidal rating CHEAL", "setting": "[1]; 0.016 kg/ha", "value": 0.0}, {"measurement": "Postemergence herbicidal rating CHEAL", "setting": "[1]; 0.032 kg/ha", "value": 4.0}, {"measurement": "Postemergence herbicidal rating CHEAL", "setting": "[1]; 0.062 kg/ha", "value": 4.0}, {"measurement": "Postemergence herbicidal rating ECHCG", "setting": "ECHOG Barnyardgrass; 0.008 kg/ha", "value": 0.0}, {"measurement": "Postemergence herbicidal rating ECHCG", "setting": "ECHOG Barnyardgrass; 0.016 kg/ha", "value": 0.0}, {"measurement": "Postemergence herbicidal rating ECHCG", "setting": "ECHOG Barnyardgrass; 0.032 kg/ha", "value": 2.0}, {"measurement": "Postemergence herbicidal rating ECHCG", "setting": "ECHOG Barnyardgrass; 0.062 kg/ha", "value": 3.0}, {"measurement": "Postemergence herbicidal rating GALAP", "setting": "GALAP Galium; 0.008 kg/ha", "value": 0.0}, {"measurement": "Postemergence herbicidal rating GALAP", "setting": "GALAP Galium; 0.016 kg/ha", "value": 0.0}, {"measurement": "Postemergence herbicidal rating GALAP", "setting": "GALAP Galium; 0.032 kg/ha", "value": 0.0}, {"measurement": "Postemergence herbicidal rating GALAP", "setting": "GALAP Galium; 0.062 kg/ha", "value": 2.0}, {"measurement": "Postemergence herbicidal rating IPOHE", "setting": "[2]; 0.008 kg/ha", "value": 3.0}, {"measurement": "Postemergence herbicidal rating IPOHE", "setting": "[2]; 0.016 kg/ha", "value": 9.0}, {"measurement": "Postemergence herbicidal rating IPOHE", "setting": "[2]; 0.032 kg/ha", "value": 9.0}, {"measurement": "Postemergence herbicidal rating IPOHE", "setting": "[2]; 0.062 kg/ha", "value": 9.0}, {"measurement": "Postemergence herbicidal rating SETVI", "setting": "SETVI Foxtail, Green; 0.008 kg/ha", "value": 0.0}, {"measurement": "Postemergence herbicidal rating SETVI", "setting": "SETVI Foxtail, Green; 0.016 kg/ha", "value": 0.0}, {"measurement": "Postemergence herbicidal rating SETVI", "setting": "SETVI Foxtail, Green; 0.032 kg/ha", "value": 7.0}, {"measurement": "Postemergence herbicidal rating SETVI", "setting": "SETVI Foxtail, Green; 0.062 kg/ha", "value": 9.0}, {"measurement": "Postemergence herbicidal rating GLXMAW", "setting": "GLXMAW Soybean, Williams; 0.008 kg/ha", "value": 3.5}, {"measurement": "Postemergence herbicidal rating GLXMAW", "setting": "GLXMAW Soybean, Williams; 0.016 kg/ha", "value": 4.0}, {"measurement": "Postemergence herbicidal rating GLXMAW", "setting": "GLXMAW Soybean, Williams; 0.032 kg/ha", "value": 6.5}, {"measurement": "Postemergence herbicidal rating GLXMAW", "setting": "GLXMAW Soybean, Williams; 0.062 kg/ha", "value": 7.0}, {"measurement": "Postemergence herbicidal rating TRZAWR", "setting": "[3]; 0.008 kg/ha", "value": 3.5}, {"measurement": "Postemergence herbicidal rating TRZAWR", "setting": "[3]; 0.016 kg/ha", "value": 5.5}, {"measurement": "Postemergence herbicidal rating TRZAWR", "setting": "[3]; 0.032 kg/ha", "value": 5.5}, {"measurement": "Postemergence herbicidal rating TRZAWR", "setting": "[3]; 0.062 kg/ha", "value": 7.0}, {"measurement": "Postemergence herbicidal rating ORYSAT", "setting": "ORYSAT Rice, Tebonnet; 0.008 kg/ha", "value": 0.5}, {"measurement": "Postemergence herbicidal rating ORYSAT", "setting": "ORYSAT Rice, Tebonnet; 0.016 kg/ha", "value": 1.0}, {"measurement": "Postemergence herbicidal rating ORYSAT", "setting": "ORYSAT Rice, Tebonnet; 0.032 kg/ha", "value": 3.5}, {"measurement": "Postemergence herbicidal rating ORYSAT", "setting": "ORYSAT Rice, Tebonnet; 0.062 kg/ha", "value": 7.5}, {"measurement": "Postemergence herbicidal rating ZEAMX", "setting": "ZEAMX Corn, Field; 0.008 kg/ha", "value": 7.0}, {"measurement": "Postemergence herbicidal rating ZEAMX", "setting": "ZEAMX Corn, Field; 0.016 kg/ha", "value": 7.5}, {"measurement": "Postemergence herbicidal rating ZEAMX", "setting": "ZEAMX Corn, Field; 0.032 kg/ha", "value": 7.5}]}
